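Dose response: 5 concentrations. Exposure: 48 h. Format: 96-well plates. Endpoint: linear interpolation; highest concentration if not reached. GI50 is the concentration that inhibits growth by half. TGI: total growth inhibition.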 Where only a bound is given, the exact number is not on record here.

Experiment in all cases: NCI-60 cell line screen, 48 h
Assay [1] deals with KM12 colon.
Assay [2] concerns TK-10 renal.
Assay [3] relates to CAKI-1 renal.
Assay [4] concerns U251 CNS.
The test system of assay [5] is MOLT-4 leukemia.
Assay [6] relates to RXF 393 renal.
Assay [7] has as its system NCI-H460 lung.
Assay [8] deals with PC-3 prostate.
Assay [9] has as its system OVCAR-3 ovarian.
The subject of assay [10] is 786-0 renal.

On to `Nc1ccn(C2OC(COP(=O)(O)O)C(O)C2O)c(=O)n1` (stereo unspecified), for which the TGI in assay [1] was above 100 µM; in assay [2], above 100 µM; in assay [3], above 100 µM; in assay [4], above 100 µM; in assay [5] it was 13.2 µM; in [6], above 94.7 µM. Also, the TGI was above 27.8 µM in assay [7], above 100 µM in [8], above 100 µM in [9] and above 100 µM in assay [10].
As to `CCOC(=O)CCc1c(C)c2ccc(O)cc2oc1=O`, the TGI in assay [2], in [3], in assay [4], in [5], in assay [6] and in assay [7] was above 100 µM each time. Besides, the TGI in assay [8], in assay [9] and in [10] was above 100 µM throughout.
As for `CCN(CC)CCCC(C)N/C(c1cccc(OC)c1)=c1\c(=O)[nH]n(-c2c3ccccc3nc3ccccc23)c(=O)\c1=C(/NC(C)CCCN(CC)CC)c1cccc(OC)c1` (stereo unspecified), the GI50 is 1.18 µM in [1]; 2.58 µM in [2]; 1.66 µM in assay [3]; 0.6 µM in [5]; 1.02 µM in assay [6]; 0.428 µM in [7]. The GI50 in assay [8] is 1.2 µM; in assay [9], 1.8 µM; in assay [10], 1.17 µM. The TGI in assay [1] amounted to 6.51 µM; in [2], 7.89 µM; in [3], 4.17 µM; in assay [5], 3.89 µM; in assay [6] it was 2.55 µM; in assay [7] it was 2.56 µM. Also, the TGI in [8] was determined as 4.97 µM; in [9], 5.4 µM; in assay [10], 3.04 µM.
Regarding `COc1cc(/C=C2\C[C@H]3[C@@H]4CC=C5C[C@@H](OC(C)=O)CC[C@]5(C)[C@H]4CC[C@]3(C)[C@H]2OC(C)=O)ccc1OCCCn1ccnc1`, the GI50 in [1] was 8.31 µM; in assay [2] it was 3.73 µM; in assay [3], 7.05 µM; in assay [4], 6.28 µM; in assay [5] it was 17.1 µM; in [6], 1.78 µM. Moreover, the GI50 was 9.2 µM in [7], 11.5 µM in [8], 12.3 µM in [9] and 6.06 µM in assay [10]. Further, the TGI in [1] was 18.1 µM; in assay [2], 13.3 µM; in assay [3], 15.8 µM; in assay [4], 12.7 µM; in assay [5] it was above 50 µM; in assay [6], 10.4 µM. Also, the TGI in assay [7] stood at 22.9 µM; in assay [8], 29.1 µM; in assay [9] it was 26.2 µM; in assay [10], 13.4 µM.
For `CCOC(=O)c1ccc2[nH]c(Cc3[nH]c4ccc(C(=O)OCC)cc4c3C)c(C)c2c1`, the GI50 was 1.51 µM in [1]; 4.28 µM in assay [2]; 1.55 µM in [3]; 0.473 µM in assay [4]; 1.83 µM in [5]; 2.75 µM in assay [6]. The GI50 in [7] was 0.167 µM; in assay [8], 1.46 µM; in assay [9], 3.06 µM; in [10], 4.51 µM. In addition, the TGI in assay [1] stood at 20.7 µM; in assay [2], 17.4 µM; in assay [3], 22.9 µM; in [4], 7.97 µM; in [5] it was 26.8 µM; in [6] it was 14.7 µM. Also, the TGI in assay [7] worked out at 6.44 µM; in assay [8], 13.7 µM; in assay [9], 17.6 µM; in assay [10], 31.4 µM.
`O=C1NC(=O)[C@H]2C3C=CC([C@@H]12)[C@@H]1C(=O)NC(=O)[C@H]31`: the TGI in assay [2], in [3], in [4], in assay [5], in [6] and in [7] was above 100 µM in each case. Also, the TGI in [8], in assay [9] and in assay [10] was above 100 µM in each case.
On to `OCC1OC(O)C(N=Cc2ccc3c(c2)OCO3)C(O)C1O` (stereo unspecified), for which the TGI in assay [1], in [2], in [3], in assay [4], in assay [5] and in [6] was above 100 µM throughout. Further, the TGI in assay [7], in assay [8], in assay [9] and in assay [10] was above 100 µM each time.
In the case of `Cc1ccc(-c2nc3nc(-c4ccc(Cl)cc4)nc(N4CCCNCC4)c3o2)cc1`, the GI50 is 1.93 µM in [1]; 1.78 µM in assay [2]; 1.45 µM in assay [3]; 1.85 µM in assay [4]; 1.91 µM in assay [5]; 1.58 µM in assay [6]. For the same compound, the GI50 is 1.93 µM in assay [7], 1.6 µM in assay [8], 1.94 µM in assay [9] and 1.86 µM in assay [10]. Also, the TGI came out at 3.81 µM in assay [1]; 3.33 µM in [2]; 2.88 µM in assay [3]; 3.55 µM in [4]; 3.72 µM in [5]; 3.03 µM in assay [6]. Also, the TGI was 3.76 µM in assay [7], 3.14 µM in [8], 3.81 µM in assay [9] and 3.54 µM in assay [10].
Consider `CN(C)c1ccc2[nH]c(O)c(C=Nc3ccc(S(N)(=O)=O)cc3)c2c1`, for which the GI50 is 1.15 µM in assay [1]; above 25 µM in [2]; above 25 µM in [3]; above 25 µM in assay [4]; above 25 µM in assay [5]; above 25 µM in assay [6]. The GI50 in assay [7], in assay [8], in assay [9] and in assay [10] was above 25 µM throughout. Moreover, the TGI in assay [1], in assay [2], in assay [3], in [4], in [5] and in assay [6] was above 25 µM each time. For the same compound, the TGI in assay [7], in [8], in [9] and in assay [10] was above 25 µM each time.
